Laboratory results: the NIST ThermoML archive (doi:10.1016/j.jct.2019.03.027)
“And” between values parts separate entries of the source, which are not always exact repeats. Equal values may be shown once.

Conditions: Liquid, Closed cell (Static) method

O=C=O [carbon dioxide]
Conditions | vapor or sublimation pressure
273.16 K | 3485.7 kPa
273.17 K | 3485.9 kPa
278.2 K | 3977 kPa and 3975 kPa
283.15 K | 4500.5 kPa and 4502 kPa
288.15 K | 5090.5 kPa and 5087 kPa
293.14 K | 5726.5 kPa and 5726.4 kPa
298.15 K | 6436.1 kPa and 6430.1 kPa
303.15 K | 7214.4 kPa
303.19 K | 7212.8 kPa
303.64 K | 7290.9 kPa
303.65 K | 7297.4 kPa
303.85 K | 7329 kPa and 7326.1 kPa
304.04 K | 7360.5 kPa and 7358.8 kPa
